Measured values reported in ChEMBL document CHEMBL4024719, “Recent progress in the identification of selective butyrylcholinesterase inhibitors for Alzheimer's disease” (Eur J Med Chem, 2017).

Assays:
[1] = target: T1, Cholinesterase (Equus caballus, UniProt P81908); experiment: Inhibition of equine serum BChE using butyrylthiocholine iodide as substrate measured at 12 secs interval for 10 mins by Ellman's method
[2] = target: T2, Acetylcholinesterase (Electrophorus electricus, UniProt O42275); experiment: Inhibition of electric eel AChE using acetylthiocholine iodide as substrate measured at 12 secs interval for 10 mins by Ellman's method
T2 sequence (O42275 whole entry): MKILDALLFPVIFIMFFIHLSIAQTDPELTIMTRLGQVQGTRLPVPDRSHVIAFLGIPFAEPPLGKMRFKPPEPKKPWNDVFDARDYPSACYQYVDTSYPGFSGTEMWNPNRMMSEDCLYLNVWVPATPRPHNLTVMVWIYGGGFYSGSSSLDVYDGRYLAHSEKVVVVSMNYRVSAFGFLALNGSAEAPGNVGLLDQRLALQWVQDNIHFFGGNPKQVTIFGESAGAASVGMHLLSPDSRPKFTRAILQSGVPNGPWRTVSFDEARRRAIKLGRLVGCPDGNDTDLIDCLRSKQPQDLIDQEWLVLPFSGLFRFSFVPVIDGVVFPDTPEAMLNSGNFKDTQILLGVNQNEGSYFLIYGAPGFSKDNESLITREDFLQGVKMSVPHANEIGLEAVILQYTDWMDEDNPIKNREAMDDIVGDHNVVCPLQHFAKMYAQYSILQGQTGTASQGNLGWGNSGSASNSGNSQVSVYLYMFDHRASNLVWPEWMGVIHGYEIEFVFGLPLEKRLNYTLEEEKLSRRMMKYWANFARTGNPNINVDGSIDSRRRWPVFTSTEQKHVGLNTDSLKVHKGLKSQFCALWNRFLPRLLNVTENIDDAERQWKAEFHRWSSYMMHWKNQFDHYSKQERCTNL

[3] = target: T3, Acetylcholinesterase (Bos taurus, UniProt P23795); experiment: Inhibition of fetal bovine serum AChE using acetylthiocholine iodide as substrate
T3 sequence (P23795 whole entry): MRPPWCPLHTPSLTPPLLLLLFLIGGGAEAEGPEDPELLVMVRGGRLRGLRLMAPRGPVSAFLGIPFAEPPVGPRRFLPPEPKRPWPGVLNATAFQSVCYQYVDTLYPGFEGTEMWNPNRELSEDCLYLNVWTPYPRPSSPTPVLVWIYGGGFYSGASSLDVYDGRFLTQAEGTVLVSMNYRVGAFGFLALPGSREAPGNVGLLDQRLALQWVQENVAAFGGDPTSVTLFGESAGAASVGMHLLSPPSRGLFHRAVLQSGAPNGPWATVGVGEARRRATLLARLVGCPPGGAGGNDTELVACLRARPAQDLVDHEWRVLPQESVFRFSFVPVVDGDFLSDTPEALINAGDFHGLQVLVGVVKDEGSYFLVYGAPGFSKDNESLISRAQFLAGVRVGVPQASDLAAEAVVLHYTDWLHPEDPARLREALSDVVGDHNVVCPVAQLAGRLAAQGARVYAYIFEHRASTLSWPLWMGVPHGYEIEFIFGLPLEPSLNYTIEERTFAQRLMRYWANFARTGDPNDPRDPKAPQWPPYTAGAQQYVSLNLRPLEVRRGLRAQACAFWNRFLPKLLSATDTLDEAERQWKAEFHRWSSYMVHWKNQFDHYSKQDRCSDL

[4] = target: T1, Cholinesterase; experiment: Inhibition of equine serum BChE using butyrylthiocholine iodide as substrate
[5] = target: T4, Cholinesterase (Homo sapiens, UniProt P06276); experiment: Inhibition of human plasma BuChE using butyrylthiocholine iodine as substrate pretreated for 10 mins followed by substrate addition measured for 5 mins by Ellman's method
T4 sequence (P06276 whole entry): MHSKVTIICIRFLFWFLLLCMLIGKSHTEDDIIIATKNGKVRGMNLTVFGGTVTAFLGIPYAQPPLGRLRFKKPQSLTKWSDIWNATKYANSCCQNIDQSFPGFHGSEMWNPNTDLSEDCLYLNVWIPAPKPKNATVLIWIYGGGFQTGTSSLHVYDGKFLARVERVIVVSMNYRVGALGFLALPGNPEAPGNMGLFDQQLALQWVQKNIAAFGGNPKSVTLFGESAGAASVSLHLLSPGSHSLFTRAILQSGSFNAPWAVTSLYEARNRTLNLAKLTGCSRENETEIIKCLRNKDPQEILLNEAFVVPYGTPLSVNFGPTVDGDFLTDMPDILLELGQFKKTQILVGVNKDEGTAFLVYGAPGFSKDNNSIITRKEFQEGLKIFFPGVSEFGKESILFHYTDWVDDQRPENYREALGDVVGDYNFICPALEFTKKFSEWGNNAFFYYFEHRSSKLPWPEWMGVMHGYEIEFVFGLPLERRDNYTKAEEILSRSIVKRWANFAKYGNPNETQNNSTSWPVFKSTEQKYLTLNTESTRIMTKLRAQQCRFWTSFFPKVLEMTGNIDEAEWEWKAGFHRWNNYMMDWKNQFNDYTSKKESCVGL

[6] = species: Homo sapiens; experiment: Selectivity ratio of IC50 for human erythrocytes AChE to IC50 for human serum BuChE
[7] = Cytotoxicity against human SH-SY5Y cells assessed as cell viability at 25 uM after 24 hrs by MTT assay relative to control; type: cell-based; conditions: read-out: Activity
[8] = target: Amyloid-beta precursor protein (Homo sapiens) (UniProt P05067); experiment: Inhibition of amyloid beta (1 to 42) (unknown origin) self-aggregation at 25 uM incubated for 30 mins measured every 5 mins for 14 hrs by thioflavin T fluorescence assay relative to control
Sequence of Amyloid-beta precursor protein (Homo sapiens) (P05067 whole entry): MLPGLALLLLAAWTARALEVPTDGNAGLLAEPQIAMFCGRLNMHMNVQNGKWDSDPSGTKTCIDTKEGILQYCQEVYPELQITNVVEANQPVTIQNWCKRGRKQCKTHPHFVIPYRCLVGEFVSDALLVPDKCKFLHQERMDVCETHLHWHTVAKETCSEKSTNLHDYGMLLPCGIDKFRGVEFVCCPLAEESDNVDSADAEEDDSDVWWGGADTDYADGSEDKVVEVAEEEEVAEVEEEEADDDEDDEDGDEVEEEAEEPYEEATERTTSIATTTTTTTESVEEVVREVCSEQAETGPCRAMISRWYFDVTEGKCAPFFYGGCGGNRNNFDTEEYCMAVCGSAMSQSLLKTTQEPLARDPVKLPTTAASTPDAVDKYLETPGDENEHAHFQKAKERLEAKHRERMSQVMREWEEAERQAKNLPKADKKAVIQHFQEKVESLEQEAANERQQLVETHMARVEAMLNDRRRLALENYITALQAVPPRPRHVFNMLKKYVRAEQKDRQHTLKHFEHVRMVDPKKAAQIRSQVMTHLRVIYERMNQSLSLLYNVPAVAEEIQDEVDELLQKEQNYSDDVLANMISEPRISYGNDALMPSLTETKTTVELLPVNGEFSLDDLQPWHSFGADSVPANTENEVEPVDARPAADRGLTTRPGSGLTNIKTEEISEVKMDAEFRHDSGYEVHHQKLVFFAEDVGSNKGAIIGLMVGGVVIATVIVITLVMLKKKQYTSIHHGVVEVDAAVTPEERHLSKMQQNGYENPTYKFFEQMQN

[9] = Selectivity ratio of IC50 for electric eel AChE to IC50 for equine serum BChE
[10] = target: T4, Cholinesterase; experiment: Inhibition of human BuChE
[11] = target: Acetylcholinesterase (Electrophorus electricus) (UniProt O42275); experiment: Inhibition of electric eel AChE-induced human amyloid beta (1 to 40 residues) at 100 uM by thiofalvin-T fluorescence assay relative to control
Sequence of Acetylcholinesterase (Electrophorus electricus) (O42275 24-633 limits assumed): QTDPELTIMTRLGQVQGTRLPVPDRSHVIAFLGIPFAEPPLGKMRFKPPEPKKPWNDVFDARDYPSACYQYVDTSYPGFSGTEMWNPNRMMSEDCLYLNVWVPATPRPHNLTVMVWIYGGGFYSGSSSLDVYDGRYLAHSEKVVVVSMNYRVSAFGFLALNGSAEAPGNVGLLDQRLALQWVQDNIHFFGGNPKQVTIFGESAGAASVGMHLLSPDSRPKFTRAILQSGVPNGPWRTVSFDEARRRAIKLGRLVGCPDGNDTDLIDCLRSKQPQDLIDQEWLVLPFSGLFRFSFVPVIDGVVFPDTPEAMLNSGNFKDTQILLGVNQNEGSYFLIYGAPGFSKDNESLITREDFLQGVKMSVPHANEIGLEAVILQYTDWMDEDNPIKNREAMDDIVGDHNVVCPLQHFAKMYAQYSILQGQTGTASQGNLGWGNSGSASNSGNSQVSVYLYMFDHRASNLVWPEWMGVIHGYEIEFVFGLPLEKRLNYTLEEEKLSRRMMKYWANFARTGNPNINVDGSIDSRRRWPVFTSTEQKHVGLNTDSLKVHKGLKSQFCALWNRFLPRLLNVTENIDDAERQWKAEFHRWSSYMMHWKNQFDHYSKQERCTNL

[12] = target: T2, Acetylcholinesterase; experiment: Inhibition of electric eel AChE using acetylthiocholine iodide as substrate pretreated for 6 mins followed by substrate measured at 60 secs interval for 180 secs by Ellman's method
[13] = target: T1, Cholinesterase; experiment: Inhibition of equine serum BuChE using s-butyrylthiocholine iodide as substrate pretreated for 6 mins followed by substrate addition measured at 60 secs interval for 180 secs by Ellman's method
[14] = Cytotoxicity against human T67 cells assessed as cell viability at 50 uM after 24 hrs by resazurin dye based spectrofluorimetric method relative to control; conditions: read-out: Activity
[15] = target: T4, Cholinesterase; experiment: Inhibition of human serum BuChE using butyrylthiocholine iodide as substrate pretreated for 20 mins followed by substrate addition by DTNB reagent based spectrophotometric method
[16] = Cytotoxicity against human T67 cells assessed as cell viability at 10 uM after 24 hrs by resazurin dye based spectrofluorimetric method relative to control; conditions: read-out: Activity
[17] = target: Amyloid-beta precursor protein (Homo sapiens) (UniProt P05067); experiment: Inhibition of HFIP-pretreated amyloid beta (1 to 42) (unknown origin) self-induced aggregation at 50 uM after 24 hrs by thioflavin-T fluorescence assay relative to control
[18] = target: T1, Cholinesterase; experiment: Inhibition of equine serum BuChE using butyrylthiocholine iodide as substrate pretreated for 10 mins followed by substrate addition by DTNB reagent based spectrophotometric method
[19] = test system: Rattus norvegicus; experiment: In-vivo inhibition of BuChE in Harlan-Wistar rat brain assessed as increase in acetylcholine level at 2.5 mg/kg, ip by microdialysis method relative to control; type: functional
[20] = test system: Rattus norvegicus; experiment: In-vivo inhibition of BuChE in Harlan-Wistar rat brain assessed as increase in acetylcholine level at 1.25 mg/kg, ip by microdialysis method relative to control; type: functional
[21] = target: T4, Cholinesterase; experiment: Inhibition of BuChE (unknown origin)
[22] = target: T4, Cholinesterase; experiment: Inhibition of human […] BuChE using s-butyrylthiocholine as substrate pretreated for 30 mins followed by substrate addition after 25 mins by spectrophotometric method
[23] = target: Acetylcholinesterase (Homo sapiens, UniProt P22303); experiment: Inhibition of human […] AChE using acetyl-(beta-methyl)thiocholine as substrate pretreated for 30 mins followed by substrate addition after 25 mins by spectrophotometric method
Sequence of Acetylcholinesterase (Homo sapiens, UniProt P22303) (P22303 whole entry): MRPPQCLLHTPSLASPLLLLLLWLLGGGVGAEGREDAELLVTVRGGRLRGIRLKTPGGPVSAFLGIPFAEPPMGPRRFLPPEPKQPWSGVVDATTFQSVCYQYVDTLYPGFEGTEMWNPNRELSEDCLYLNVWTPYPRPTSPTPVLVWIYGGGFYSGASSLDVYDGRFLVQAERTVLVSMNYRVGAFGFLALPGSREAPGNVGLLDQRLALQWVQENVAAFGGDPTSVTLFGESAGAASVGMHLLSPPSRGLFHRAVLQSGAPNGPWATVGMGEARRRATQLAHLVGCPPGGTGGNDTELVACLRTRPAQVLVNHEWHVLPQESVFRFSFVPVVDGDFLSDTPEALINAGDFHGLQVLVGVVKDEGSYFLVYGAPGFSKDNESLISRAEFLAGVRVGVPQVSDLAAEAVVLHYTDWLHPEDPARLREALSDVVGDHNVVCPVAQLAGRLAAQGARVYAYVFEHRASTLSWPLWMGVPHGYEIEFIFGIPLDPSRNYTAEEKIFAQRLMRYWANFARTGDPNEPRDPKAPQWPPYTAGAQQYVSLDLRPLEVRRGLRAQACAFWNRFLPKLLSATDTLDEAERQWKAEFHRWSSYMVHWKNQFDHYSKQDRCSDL

T1 sequence (P81908 whole entry): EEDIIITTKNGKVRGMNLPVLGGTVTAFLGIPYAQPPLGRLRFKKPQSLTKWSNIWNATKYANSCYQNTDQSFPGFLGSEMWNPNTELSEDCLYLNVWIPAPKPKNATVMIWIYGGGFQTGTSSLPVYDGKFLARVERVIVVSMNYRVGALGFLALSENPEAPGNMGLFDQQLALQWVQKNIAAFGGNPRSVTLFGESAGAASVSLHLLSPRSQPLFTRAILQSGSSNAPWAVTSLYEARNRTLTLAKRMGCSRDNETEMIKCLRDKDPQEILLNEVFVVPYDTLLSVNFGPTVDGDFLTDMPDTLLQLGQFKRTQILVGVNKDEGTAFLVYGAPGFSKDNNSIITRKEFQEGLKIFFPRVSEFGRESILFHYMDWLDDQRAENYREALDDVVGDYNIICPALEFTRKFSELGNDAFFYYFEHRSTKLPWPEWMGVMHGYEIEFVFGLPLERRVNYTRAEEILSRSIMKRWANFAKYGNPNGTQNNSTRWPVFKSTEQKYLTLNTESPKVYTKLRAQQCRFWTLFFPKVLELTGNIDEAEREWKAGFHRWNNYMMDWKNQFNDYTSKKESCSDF

Question: Which results are given for `Oc1ccc(/C=C/c2cc(O)cc(O)c2)cc1` [RESVERATROL]?
Answer: IC50 [1]: 400 µM; IC50 [2]: > 1000 µM

Question: For `c1ccc2c(NCCCCCCCSc3c4c(nc5ccccc35)CCCC4)c3c(nc2c1)CCCC3`, which IC50 [3] is on record?
Answer: Its IC50 is 0.34 µM.

Question: What about the IC50 [4] of the same compound?
Answer: The IC50 was 0.035 µM.

Question: With `COc1ccc(N[C@H]2CCC[C@@H](OC(=O)N(C)C)C2)cc1` as the compound, how does the IC50 [5] read?
Answer: The IC50 was 110 µM.

Question: With `COc1ccc(CNc2c3c(nc4ccccc24)CCCC3)cc1OC` as the compound, how does the Ratio IC50 [6] read?
Answer: Its Ratio IC50 is 110.

Question: What about the viability at 24 h, 25 µM [7] of the same compound?
Answer: The viability at 24 h, 25 µM was 58.9%.

Question: And the inhibition [8]?
Answer: The inhibition was 40%.

Question: With `CC(C(=O)NCCCCCCCCNc1c2c(nc3ccccc13)CCCC2)c1ccc(-c2ccccc2)c(F)c1` (stereo not drawn) as the compound, how does the Ratio IC50 [9] read?
Answer: Its Ratio IC50 is 16.4.

Question: With `CC(=O)N(CCCNc1c2c(nc3ccccc13)CCCC2)CCNc1c2c(nc3ccccc13)CCCC2` as the compound, how does the IC50 [3] read?
Answer: Its IC50 is 1.5 µM.

Question: And the IC50 [4]?
Answer: The IC50 was 0.002 µM.

Question: For `COc1ccc(Cn2cc(CNc3c4c(nc5ccccc35)CCCC4)nn2)cc1`, which IC50 [10] is on record?
Answer: Its IC50 is 0.055 µM.

Question: Which inhibition [11] does the source give for `O=C(NCCCCCCNc1c2c(nc3ccccc13)CCCCC2)c1cc(O)c2c(c1)C(=O)c1cccc(O)c1C2=O` here?
Answer: Its inhibition is 64.8%.

Question: What about the IC50 [12] of the same compound?
Answer: Its IC50 is 0.13 µM.

Question: And the IC50 [13]?
Answer: Its IC50 is 0.011 µM.

Question: What about the Ratio IC50 [9] of the same compound?
Answer: Its Ratio IC50 is 11.

Question: Which results are given for `COc1ccccc1CN1CCN(Cc2ccc3cccnc3c2O)CC1`?
Answer: viability at 24 h, 50 µM [14]: 81%; IC50 [15]: 5.71 µM; viability at 24 h, 10 µM [16]: > 90%; inhibition [17]: 44.2%

Question: With `Oc1ccccc1/C=C/c1cc(O)c(F)c(O)c1` as the compound, how does the IC50 [1] read?
Answer: The IC50 was 10 µM.

Question: What about the IC50 [2] of the same compound?
Answer: Its IC50 is 960 µM.

Question: And the Ratio IC50 [9]?
Answer: Its Ratio IC50 is 96.

Question: Which IC50 [18] does the source give for `CCN1CCc2c(c3cc(F)ccc3n2CCC(=O)N2c3ccccc3Sc3ccccc32)C1` here?
Answer: Its IC50 is 0.39 µM.

Question: Which results are given for `CC(C)c1ccc(NC(=O)Oc2ccc3c(c2)[C@]2(C)CCN(CCc4ccccc4)[C@@H]2N3C)cc1`?
Answer: inhibition in vivo at 2.5 mg/kg [19]: 290%; inhibition in vivo at 1.25 mg/kg [20]: 180%

Question: For `c1ccc(CNc2c3c(nc4ccccc24)CCCC3)nc1`, which Ratio IC50 [6] is on record?
Answer: The Ratio IC50 was 957.

Question: For `Oc1ccc(-c2cnc3ccccc3n2)cc1`, which IC50 [21] is on record?
Answer: The IC50 was 7.7 µM.

Question: With `CC(C)c1ccc(NC(=O)Oc2ccc3c(c2)[C@]2(C)CCC(C)[C@@H]2C3C)cc1` (stereo partly drawn) as the compound, how does the IC50 [22] read?
Answer: Its IC50 is 0.05 µM.

Question: What about the IC50 [23] of the same compound?
Answer: The IC50 was 0.76 µM.

Question: With `c1ccc2c(SCCCCCCCSc3c4c(nc5ccccc35)CCCC4)c3c(nc2c1)CCCC3` as the compound, how does the IC50 [3] read?
Answer: The IC50 was over 10 µM.

Question: What about the IC50 [4] of the same compound?
Answer: The IC50 was 0.38 µM.

Question: With `COc1ccc(N[C@@H]2CCC[C@@H](OC(=O)N(C)C)C2)cc1` as the compound, how does the IC50 [5] read?
Answer: Its IC50 is 110 µM.
